Source: BindingDB's records for doi:10.1016/j.str.2004.01.005 (University of Dundee, 2004)

What was measured:
Assay in all cases: PDK1 Kinase Activity Assay
Conditions in all cases: pH 7.5; 30 °C
[1] = target: T1, 3-phosphoinositide-dependent protein kinase 1 [51-359] (Human, UniProt O15530)
T1 construct: 51-359
T1 sequence (O15530 whole entry): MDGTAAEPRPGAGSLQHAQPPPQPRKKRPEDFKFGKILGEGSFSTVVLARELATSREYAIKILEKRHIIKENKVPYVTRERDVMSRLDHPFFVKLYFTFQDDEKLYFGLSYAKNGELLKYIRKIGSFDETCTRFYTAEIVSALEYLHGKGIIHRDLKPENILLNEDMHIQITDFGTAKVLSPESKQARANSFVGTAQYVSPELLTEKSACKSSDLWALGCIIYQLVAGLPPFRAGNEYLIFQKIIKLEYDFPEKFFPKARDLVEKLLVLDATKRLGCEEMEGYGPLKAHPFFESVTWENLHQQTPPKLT

[2] = target: T2, 3-phosphoinositide-dependent protein kinase 1 [51-359,E166D] (Homo sapiens, UniProt O15530, E166D)
T2 construct: 51-359

[3] = target: T3, 3-phosphoinositide-dependent protein kinase 1 [51-359,L159M] (Homo sapiens, UniProt O15530, L159M)
T3 construct: 51-359

[4] = target: T4, 3-phosphoinositide-dependent protein kinase 1 [51-359,V143T,T222A] (Homo sapiens, UniProt O15530, T222A/V143T)
T4 construct: 51-359

[5] = target: T5, 3-phosphoinositide-dependent protein kinase 1 [51-359,T222A] (Homo sapiens, UniProt O15530, T222A)
T5 construct: 51-359

[6] = target: T6, 3-phosphoinositide-dependent protein kinase 1 [51-359,A162V] (Homo sapiens, UniProt O15530, A162V)
T6 construct: 51-359

[7] = target: T7, 3-phosphoinositide-dependent protein kinase 1 [51-359,V143T] (Homo sapiens, UniProt O15530, V143T)
T7 construct: 51-359
T7 sequence (O15530 51-359 V143T): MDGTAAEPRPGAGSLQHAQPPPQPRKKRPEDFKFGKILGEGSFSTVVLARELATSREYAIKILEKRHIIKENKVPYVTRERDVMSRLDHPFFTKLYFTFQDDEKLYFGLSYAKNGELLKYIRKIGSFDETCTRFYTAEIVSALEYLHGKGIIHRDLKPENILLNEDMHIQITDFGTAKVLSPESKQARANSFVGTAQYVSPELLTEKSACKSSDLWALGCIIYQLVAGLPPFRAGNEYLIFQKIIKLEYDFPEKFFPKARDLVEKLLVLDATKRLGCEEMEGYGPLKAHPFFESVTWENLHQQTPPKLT

T5 sequence (O15530 51-359 T222A): as the sequence (O15530 51-359 V143T) above, with T93V, T172A counted along it
T6 sequence (O15530 51-359 A162V): as the sequence (O15530 51-359 V143T) above, with T93V, A112V counted along it
T4 sequence (O15530 51-359 V143T/T222A): as the sequence (O15530 51-359 V143T) above, with T172A counted along it
T3 sequence (O15530 51-359 L159M): as the sequence (O15530 51-359 V143T) above, with T93V, L109M counted along it
T2 sequence (O15530 51-359 E166D): as the sequence (O15530 51-359 V143T) above, with T93V, E116D counted along it

SMILES | IC50 [1] [µM] | IC50 [2] [µM] | IC50 [3] [µM] | IC50 [4] [nM] | IC50 [5] [µM] | IC50 [6] [µM] | IC50 [7] [nM]
CN(C)CCCn1cc(C2=C(c3c[nH]c4ccccc34)C(=O)NC2=O)c2ccccc21 [2-[1-(3-dimethylaminopropyl)-indol-3-yl]-3-(indol-3-yl)maleimide] | 9 | – | – | – | – | – | –
CN1CCCC1CCn1cc(C2=C(c3c[nH]c4ccccc34)C(=O)NC2=O)c2ccccc21 (stereo not given) [3-(1H-indol-3-yl)-4-{1-[2-(1-methylpyrrolidin-2-yl)ethyl]-1H-indol-3-yl}-2,5-dihydro-1H-pyrrole-2,5-dione] | 14 | – | – | – | – | – | –
NCCCn1cc(C2=C(c3c[nH]c4ccccc34)C(=O)NC2=O)c2ccccc21 [Bisindolyl deriv. 19] | 4 | 5.7 | 3 | 2000 | 3.8 | 3.4 | 2500
Cn1cc(C2=C(c3cn(CCCN)c4ccccc34)C(=O)NC2=O)c2ccccc21 [Ro 31-7549] | 1 | – | – | – | – | – | –
